The source made the active and inactive calls. No rule for the calls is given here. A value given as a limit tells only on which side of the number the result lay.

By AC50 is commonly meant the concentration at which the activity in the assay is half-maximal.

The nature of the experiment: non-covalent RecA intein splicing inhibitors, dose response, biochemical, cell-free, fluorescence, secondary screen (AID 449750).
In the case of `O=C(c1ccc(Cl)cc1)n1cnc2ccccc21`, the AC50 is > 38 µM (inactive). For the molecule `O=C(NCc1ccc2c(c1)OCO2)c1nc(S(=O)(=O)Cc2ccccc2)ncc1Cl`, the AC50 was > 38 µM (inactive). As for `O=C(CCl)Nc1cccc(S(=O)(=O)N2CCCCCC2)c1`, the AC50 was > 38 µM (inactive).

Consider `CC(=O)N(Cc1ccc(F)cc1)C1=C(NCc2ccccc2)C(=O)c2ccccc2C1=O`, for which the AC50 is 2.18 µM. The same measure for `CC(CCn1cccn1)NC(=O)CCc1nnc(CCc2ccccc2)o1` (centres undefined): > 38 µM (inactive); for `O=[N+]([O-])c1c(NCCO)cc(Sc2nc3ccccc3s2)c2nonc12`: 32.3 µM.

Regarding `COc1ccc(N2C(=O)CC(N(CCc3ccccc3)C(=O)/C=C/C(=O)O)C2=O)cc1` (centres undefined), the AC50 was > 38 µM (inactive). As to `Cc1ccc(NC(=O)CCl)cc1S(=O)(=O)N1CCCCCC1`, the concentration at half-maximal activity (AC50) was 10 µM.

Consider `O=C(CCl)c1ccc2c(c1)CCN2C(=O)C1CCCCC1`, for which the AC50 is > 38 µM (inactive). `CCOc1cc(C(c2c(C)[nH][nH]c2=O)c2c(C)[nH][nH]c2=O)cc(Br)c1OC`: the half-maximal activity concentration (AC50) was 15.8 µM. For the molecule `COc1cc(C(c2c(C)[nH][nH]c2=O)c2c(C)[nH][nH]c2=O)ccc1OC(C)C`, the AC50 is 12 µM. On to `CCOC(=O)c1c(CC(C)C)csc1NC(=O)CCl`, for which the AC50 is 3.33 µM. For `Cc1ccc(C(=O)C2C(c3ccc(-c4ccccc4[N+](=O)[O-])o3)NC(=O)NC2(O)C(F)(F)F)cc1` (centres undefined), the half-maximal activity concentration (AC50) is 19.9 µM. The same measure for `Cc1ccc(C)c(NC2=C(Cl)C(=O)OC2OC(=O)c2ccco2)c1` (centres undefined): > 38 µM (inactive); for `CCOc1cc(C(c2c(C)[nH][nH]c2=O)c2c(C)[nH][nH]c2=O)ccc1O`: 5.54 µM.

For `Cc1ccc(-n2nc(C)c3c2OC(N)=C(C#N)C3c2ccc(F)cc2)cc1` (centres undefined), the AC50 was 26.5 µM. On to `CC(C)=CCC/C(C)=C/Cc1c(O)ccc(C(=O)/C=C/c2ccc(O)cc2)c1O`, for which the AC50 was 16.4 µM. With `C/C(CC(=O)Nc1ccccn1)=N\NC(=O)c1ccc(C)cc1`, the AC50 is > 38 µM (inactive). As for `CN1C(=O)/C(=N\OC(=O)c2cccc3ccccc23)c2ccccc21`, the AC50 was > 38 µM (inactive). Turning to `COc1cc(NC(C)CCCN)c2ncccc2c1Oc1ccccc1` (centres undefined), the AC50 is 15.2 µM. Then `COc1ccccc1-c1cc(C(F)(F)F)nc(S(=O)(=O)CCCC(=O)NCc2ccc(F)cc2)n1`, with 6.03 µM. With `CCc1ccc(S(=O)(=O)/N=C2\C=CC(=O)c3ccccc32)cc1`, the AC50 was 2.6 µM.

As to `CC1=Nc2cccc3cccc(c23)N1C`, the AC50 is > 38 µM (inactive). As for `Cc1nc(COC(=O)c2cc(O)c3ccccc3c2O)cs1`, the AC50 is 15.1 µM. `CCc1nnc(NC(=O)c2nc(S(=O)(=O)Cc3cccc(C)c3)ncc2Cl)s1`: the AC50 was > 38 µM (inactive).

On to `CN1CCN(C(c2ccc(C(F)(F)F)cc2)c2cc(Cl)c3cccnc3c2O)CC1` (centres undefined), for which the AC50 was > 38 µM (inactive). As to `CCc1[nH]nc2c1C(c1ccsc1)C(C#N)=C(N)O2` (centres undefined), the AC50 was > 38 µM (inactive). Turning to `O=C(O)/C=C/C(=O)Nc1ccc(SC(F)(F)C(F)(F)C(F)(F)F)cc1`, the AC50 is 7.99 µM. `Cc1ccc2c(c1)Oc1ccc(NC(=O)CCl)cc1C(=O)N2`: the AC50 is 6.94 µM. Consider `CCOC(=O)C1=C(c2ccccc2)O/C(=C(/C#N)C(F)(F)F)S1`, for which the AC50 was > 38 µM (inactive). Then `CC(=O)C12CC(C)=C(C)CC1CC1C3CCC4=CC(=O)CCC4(C)C3CCC12C` (centres undefined), with 4.58 µM; and `CC(=O)c1c(Cl)nc2cccc3c2c1-c1ccccc1C3=O`, with > 38 µM (inactive); and `O=C(CCl)N=c1sccn1Cc1ccc(Cl)cc1Cl`, with 5.88 µM. Then `Nc1ccc2ncccc2c1`, with 15.5 µM; and `N#C/C(=C\c1cccc(O)c1)c1nc2ccccc2o1`, with > 38 µM (inactive).

Turning to `COc1ccc(N(C(=O)COc2cccc(C)c2)S(=O)(=O)c2ccc(C)cc2)cc1`, the AC50 is > 38 µM (inactive).

With `CCCn1c(CC)nc([N+](=O)[O-])c1S(=O)(=O)c1ccccc1`, the AC50 is > 38 µM (inactive). Take `Nc1ccc(N(CCO)CCO)cc1`: the AC50 was > 38 µM (inactive).

Turning to `COC(=O)c1ccccc1OC(=O)c1ccc(Br)o1`, the AC50 was > 38 µM (inactive). With `CC(C)C(=O)N1CCN(c2nc(-c3ccccc3)c3c(c2C#N)CCCC3)CC1`, the half-maximal activity concentration (AC50) is 9.83 µM.

Consider `Cc1ccccc1-c1cc2c(nn1)-c1ccccc1C2=O`, for which the half-maximal activity concentration (AC50) was 8.26 µM. As to `CN(C)C(=S)N=Nc1[nH]c2ccccc2c1O`, the AC50 is > 38 µM (inactive). In the case of `O=c1cc(-c2cccc([N+](=O)[O-])c2)[nH][nH]1`, the concentration at half-maximal activity (AC50) was 9.77 µM. Then `COc1cc2c(cc1OC)-c1c(OC)c(OC)cc3c1C(C2)N(C)CC3` (centres undefined), with 10.3 µM; and `CCOC(=O)Cn1cc(/C=N/NC(=O)CC#N)c2ccccc21`, with > 38 µM (inactive); and `C=CCn1c(N)c(C(=O)Nc2cccc(C)c2)c2nc3ccccc3nc21`, with 14.4 µM. Then `COc1cc(NC(C)CCCN)c2ncccc2c1` (centres undefined), with 12.3 µM. Regarding `CCCc1[nH]nc2c1C(c1ccc(OC(=O)N3CCOCC3)c(OC)c1)C(C#N)=C(N)O2` (centres undefined), the AC50 was > 38 µM (inactive).

Consider `CN(C)c1ccc(C(=O)n2nnc3ccccc32)cc1`, for which the AC50 is > 38 µM (inactive). For the molecule `Cc1ccc(N(CCC#N)C(=O)CCl)cc1C`, the AC50 was 11.5 µM. As to `CCn1nc(/C=C/c2ccccc2)nc2c(=O)n(C)c(=O)nc1-2`, the AC50 was 0.0666 µM. Then `O=C(NC1CCCC1)C(c1ccc(F)cc1)N(Cc1ccccc1Cl)C(=O)CCl` (centres undefined), with 0.802 µM; and `CC(=O)c1cccc2c(O)c(C3=Nc4ccccc4C3=O)[nH]c12`, with 34.6 µM. On to `O=C(Oc1ccc(-c2nnco2)cc1)c1ccco1`, for which the AC50 is > 38 µM (inactive).

Turning to `CC(=O)n1cc(N(C(=O)CCl)c2ccccc2)c2ccccc21`, the half-maximal activity concentration (AC50) is 3.56 µM. As for `Fc1ccc(Nc2nc(NCc3ccco3)c3ccccc3n2)cc1`, the AC50 is 7.39 µM.

`CC(C)c1ccc(/C=N/NC(=O)c2nnn(-c3nonc3N)c2CSC2=NCCS2)cc1`: the half-maximal activity concentration (AC50) is 27.6 µM.

In the case of `CCNc1ccccc1CP(=O)(c1ccccc1)c1ccccc1O` (centres undefined), the AC50 is 22.6 µM.

Turning to `O=S(=O)(c1ccc(Cl)cc1)c1snnc1-c1ccccc1`, the AC50 was > 38 µM (inactive). As for `O=C(CCl)N1CCN2C(=O)c3ccccc3C12c1ccc(Cl)cc1` (centres undefined), the AC50 was 7.81 µM. As to `CCC(CNc1cc(OC)cc2cccnc12)NC1CCCCC1` (centres undefined), the AC50 is 6.86 µM. Take `O=C1CCCC2=C1C1(O)C(=O)c3ccccc3C1(O)O2` (centres undefined): the AC50 was 7.79 µM. Then `CCCCNC1=CC(=O)C(=O)c2ccccc21`, with 7.53 µM. In the case of `Cc1[nH]nc2c1C1(CCC(c3ccccc3)CC1)C(C#N)=C(N)O2` (centres undefined), the AC50 was > 38 µM (inactive). In the case of `Cc1ccccc1CS(=O)(=O)c1snnc1C`, the AC50 is > 38 µM (inactive). Turning to `CCN(C(=O)CSc1ncccc1C(=O)Oc1cccc([N+](=O)[O-])c1)c1cccc(C)c1`, the AC50 was > 38 µM (inactive). Then `COc1cc(/C=C2/C(=O)N(c3ccc([N+](=O)[O-])cc3)N=C2N2CCOCC2)ccc1O`, with 31.5 µM; and `C/C(CC(=O)Nc1ccccn1)=N\NC(=O)c1cccc(C)c1`, with > 38 µM (inactive).

In the case of `COc1ccc(CN(CCC(c2ccccc2)c2ccc(OC(C)C)cc2)C(=O)CCl)cc1OC` (centres undefined), the AC50 was 0.569 µM.

`Cc1cc(=O)n(-c2ccc(C(=O)O)cc2)[nH]1`: the AC50 is 1.92 µM.

As for `CSc1nnc(NC(=O)c2nc(S(=O)(=O)Cc3ccccc3F)ncc2Cl)s1`, the AC50 was > 38 µM (inactive). With `O=C(CCl)N(Cc1cccc([N+](=O)[O-])c1)c1cccc(Cl)c1`, the AC50 is 2.77 µM. On to `O=C(CN1C(=O)S/C(=C\C=C\c2ccccc2)C1=O)Nc1ccccc1C(=O)O`, for which the AC50 is 14.1 µM. For `Cc1cccc(NC2=C(NC(=O)c3ccccc3)C(=O)c3ccccc3C2=O)c1`, the AC50 was 9.5 µM. Take `O=C(C1=C(c2ccccc2)C(=O)c2ccccc2C1=O)c1ccccc1`: the AC50 was 3.45 µM. For the molecule `Cc1ccc(-c2cc(-c3ccc(C)cc3)[n+](-c3ccc(C(=O)[O-])cc3)c(-c3ccc(C)cc3)c2)cc1`, the AC50 was 37.5 µM.

Take `Cc1ccc(N2C(=O)C(Cl)=C(N3CCOCC3)C2=O)cc1Cl`: the AC50 was > 38 µM (inactive). `COc1cc(C(c2c(C)[nH][nH]c2=O)c2c(C)[nH][nH]c2=O)ccc1OCc1ccc([N+](=O)[O-])cc1`: the AC50 was 6.41 µM.

`C=CCc1cccc(C=Nc2c[nH]c(=O)[nH]c2=O)c1O`: the AC50 was > 38 µM (inactive). For the molecule `CC1=C(C)/C(=N/OC(=O)c2cccc([N+](=O)[O-])c2)C=CC1=O`, the AC50 was > 38 µM (inactive). The same measure for `C/C(CC(=O)Nc1cccnc1)=N\NC(=O)c1ccc([N+](=O)[O-])c(Cl)c1`: > 38 µM (inactive); for `CCS(=O)(=O)C1=NN2C(=N)/C(=C\c3ccc(OC(=O)c4ccco4)cc3)C(=O)N=C2S1`: > 38 µM (inactive). The same measure for `CCN(CC)CCN1C(=O)C(O)=C(C(C)=O)C1c1ccccc1[N+](=O)[O-]` (centres undefined): 37.7 µM. Consider `COC(=O)/C(=C1/Oc2cc(C)oc(=O)c2S1)C(F)(F)F`, for which the AC50 was > 38 µM (inactive). For the molecule `O=C(CCl)N(c1ccccc1)c1ccccc1`, the AC50 was 5.75 µM. Consider `COc1ccc(C(O)c2nccc3cc(OC)c(OC)cc23)cc1OC` (centres undefined), for which the AC50 is > 38 µM (inactive). For `Cc1[nH]nc2c1C(c1cn[nH]c1-c1ccc(F)cc1)C(C#N)=C(N)O2` (centres undefined), the AC50 is > 38 µM (inactive). Turning to `Cc1cccc(CS(=O)(=O)c2ncc(Cl)c(C(=O)Nc3c(C)cccc3C)n2)c1`, the AC50 is > 38 µM (inactive). On to `Cc1ccc2nc(-c3cccs3)oc(=O)c2c1`, for which the AC50 was > 38 µM (inactive).

Turning to `Cc1nc2c(=O)n(C)c(=O)n(C)c2nc1Cl`, the AC50 is > 38 µM (inactive). Regarding `COc1ccccc1NC(=O)c1cnc(SCC(=O)NCC2CCCO2)n(C)c1=O` (centres undefined), the AC50 is > 38 µM (inactive). For the molecule `CCCc1[nH]nc2c1C(c1ccncc1)C(C#N)=C(N)O2` (centres undefined), the AC50 is > 38 µM (inactive).

As for `CC(=O)Oc1c(Br)cc(N(C(C)=O)S(=O)(=O)c2ccccc2)c2ccccc12`, the AC50 is 8.88 µM. With `O=C(Nc1cccc(F)c1)N1CCC(c2ccccc2)CC1`, the AC50 is > 38 µM (inactive).
